Reference: patent publication US6689762B1, “Composition and methods for treatment of HIV infection” (Enzon Pharmaceuticals, Inc., priority 1998, dated 2004)
Values joined by “and” are separate entries in the source; they are usually repeats but may differ in a detail not shown here. Identical values can stand only once.

B1: PEG-ASNase: asparaginase conjugated with polyethylene glycol (PEG); sold under the name ONCASPAR by Rhône-Poulenc Rorer (conjugate, UniProt P00805 23-348, looked up)
L-asparaginase 2: LPNITILATGGTIAGGGDSATKSNYTVGKVGVENLVNAVPQLKDIANVKGEQVVNIGSQDMNDNVWLTLAKKINTDCDKTDGFVITHGTDTMEETAYFLDLTVKCDKPVVMVGAMRPSTSMSADGPFNLYNAVVTAADKASANRGVLVVMNDTVLDGRDVTKTNTTDVATFKSVNYGPLGYIHNGKIDYQRTPARKHTSDTPFDVSKLNELPKVGIVYNYANASDLPAKALVDAGYDGIVSAGVGNGNLYKSVFDTLATAAKTGTAVVRSSRVPTGATTQDAEVDDAKYGFVASGTLNPQKARVLLQLALTQTKDPQQIQQIFNQY
modifications: PEG conjugate (pegaspargase)
notes: asparaginase conjugated with polyethylene glycol (PEG); sold under the name ONCASPAR by Rhône-Poulenc Rorer

Key:
Format in all cases: cell-based
[1] = tested on: HIV-RT in supernatants of HIV-1 infected CEM/0 T-cells; experiment: HIV-RT ELISA in supernatants of HIV-1 infected CEM/0 T-cells; settings: for inhibition of HIV-RT in supernatants: Experiment 8 text, day 7; for HIV-RT (negative values set to 0): Table 6, per specimen
Method: (§1) The following is a general procedure for the HIV-reverse transcriptase assay:
Materials and Methods: The cell line used for this experiment is CEM/0, a human T-cell leukemic cell line. PEG-ASNase (ONCASPAR) is provided by Rhone-Poulenc Rorer. Saquinavin (SQ) is commercially available. AZT is purchased from Sigma. […] The drug concentrations used are as follows:
(§2) Briefly, 3×10^6 cells/ml are stimulated with PHA+ media for 48 hours at 37° C. with 5% CO2. Also, the same number of cells are incubated in PHA free media for 48 hours to serve as the negative control. At this point the cells are inoculated with the HIV-1 virus as per standard protocol. Note that in this experiment, the HIV containing supernatant from the PLA-stimulated healthy human peripheral mononuclear cells (PBMC) is not removed from the PHA-stimulated CEM/0 cell culture. […] These virus particles are released by already infected T-cells and/or lymph nodes of patients.
(§3) The experimental drugs are added to the cells in the appropriate concentrations at the same time as viral inoculation or 90 minutes after the viral incubation, a time sufficient for the T-cells to be infected and start producing new HIV-1 virus particles. The control cells are resuspended in drug-free media for the duration of the exposure which lasted seven days. Aliquots of media from the control flasks only are obtained on day 5 post Rx. At day seven, three 1 ml each, aliquots of media are removed from the flasks and stored under liquid nitrogen. In addition, the remaining cells are split into three and then pelleted and stored at −80° C.

[2] = tested on: HIV-RT levels of HIV-1 infected CEM/0 cell pellets; experiment: HIV-RT ELISA (Reverse Transcriptase Assay, non-radioactive) in cell pellets of HIV-1 infected CEM/0 T-cells; set-up: % of control (of RANGE) / % of control (of MEAN): concentration or dose not given beside the values; settings: for MEAN (HIV-RT): Table 5, three wells; for % of control (of RANGE): * single point determination; for MEAN X3 (HIV-RT): Table 9
Text: as §1
The cell line used for these studies is CCRF/CEM/O, a human T-leukemic cell line. PEG-ASNase (ONCASPAR) is provided by Rhone-Poulenc Rorer. Saquinavir is commercially available. RPMI-1640 media (Irvine Scientific, Irvine, Calif.) is enriched with 10% Fetal Calf Serum (Gemini Biosource, Calabasas, Calif.), 5% 1M Hepes Buffer solution and 5% Non-essential amino acids (Irvine Scientific, Irvine, Calif.). The drug concentrations used are as follows:
Briefly, 2×10^6 cells/ml are stimulated with PHA+ media for 48 hours at 37° C. with 5% CO2. Also, the same number of cells are incubated in PHA(phytohemagglutinin) free media for 48 hours to serve as the negative control. At this point the cells are inoculated with the HIV-1 virus as per standard protocol. PEG-ASNase and/or Saquinavir are added to the cells in the appropriate concentrations (see above). The control cells are resuspended in drug-free media for the duration of the exposure which lasted seven days. At day five, two 1 ml aliquots of media are removed from the flasks and stored under liquid nitrogen. At day seven, two more 1 ml aliquots of media are removed from the flasks and stored under liquid nitrogen. In addition, the remaining cells are pelleted and stored at −80° C.
The samples produced from this experiment are itemized and then assayed for HIV-RT using the Reverse Transcriptase Assay, non-radioactive (Boehringer Mannheim). The standard curve is determined and the HIV-RT levels for the experimental samples are calculated.
This experiment is carried out using a similar procedure, and the same concentrations of materials as in Experiment 7, however the exposure of the HIV virus in T-cell pellets to PEG-ASNase and Saquinavir alone, and in combination is measured. It should be noted that “PEG” in Table 2a represents PEG-ASNase. […]

[3] = tested on: HIV-RNA in supernatant of HIV-1 infected CEM/0 T-cells; experiment: HIV-1 quantitative RNA assay (HIV-1 Monitor) in supernatants of CEM/0 T-cells; set-up: inhibition of HIV-RNA in the supernatants in comparison to untreated control / % OF CONTROL / % control: concentration or dose not given beside the values; settings: for N*: day 7 post Rx, PEG 0.400 IU/ml, SAQ 25 uM, AZT 1 uM, combinations PEG 0.233 IU/ml + SAQ 14.52 uM; for inhibition of HIV-RNA in the supernatants in comparison to untreated control: Experiment 6 text; for % control / MEAN N: Table 3; for Log 10 N: Table 3, per flask
Text: It should be noted that “PEG” in Table 3 represents PEG-ASNase.
Materials and Methods: The cell line used for these studies is CEM/0, a human T-cell leukemic cell line. PEG-ASNase (ONCASPAR) is provided by Rhone-Poulenc Rorer. Saquinavin is commercially available. AZT is purchased from Sigma. MISID, a ribonucleotide reductase inhibitor, is as described in Nandy P, Lien E J, Avramis V I, Med. Chem. Res. 1995, 5:664-679. RPMI-1640 media (Irvine Scientific, Irvine, Calif.), is enriched with 10% Fetal Calf Serum (Gemini Biosource, Calabasas, Calif.), 5% 1M Hepes Buffer solution and 5% Non-essential amino acids (Irvine Scientific, Irvine, Calif.). The drug concentrations used are as follows:
as §2, with “from the PHA-stimulated healthy human” for “from the PLA-stimulated healthy human”, “particles are continuously released by” for “particles are released by”
as §3, with “C. Supernatant specimens are obtained form these T-cell cultures and are frozen at −80° C. The samples produced from this experiment are itemized. The cell pellets of the cellular cultures (see Experiment 9) from the 90 minute viral incubation flasks are assayed for HIV-RNA quantitative assay using a kit for the assay, non-radioactive. […] The standard curve is determined and the HIV-RNA levels for the experimental samples are calculated and reported previously.” for “C.”
This experiment is carried out using a similar procedure, and the same concentrations of materials as in Experiment 10, however the exposure of HIV-RNA in T-cell supernatants to a combination of PEG-ASNase, Saquinavir, AZT and 3TC is measured. It should be noted that “PEG” in Table 10 represents PEG-ASNase.

[4] = Experiment 7, monotherapy at IC50 concentrations or combination
[5] = Experiment 10 (3TC) text, cell pellets
[6] = Table 9, per well, listed as SAQ
[7] = Table 2a, per flask, listed as PEG
[8] = Table 9, per well, listed as PEG

Molecule	inhibition of HIV-RT in supernatants [1]	HIV-RT (negative values set to 0) [1] [pg/well]	% of control (of MEAN) ([2]; Table 5) [%]	MEAN (HIV-RT) [2] [pg/well]	% of control (of RANGE) ([2]; Table 5) [%]	MEAN X3 (HIV-RT) [2] [ng/well]	MEAN ([3]; Table 8) [copies/mL]	% OF CONTROL ([3]; Table 8 and Experiment 10) [%]	MEAN ([3]; Table 10) [copies/mL]	% OF CONTROL ([3]; Table 10 and Experiment 11)	inhibition of HIV-RT [2, 4] [%]	inhibition of HIV-RT [2, 5]	group mean (X2/X3) +/- S.D. ([2]; Table 2a)	inhibition of HIV-RNA in the supernatants in comparison to untreated control [3]	% control [3] [%]	MEAN N [3] [copies/mL]	also measured
Cc1cn([C@H]2C[C@H](N=[N+]=[N-])[C@@H](CO)O2)c(=O)[nH]c1=O [AZT, zidovudine]	Great inhibition	0	0	0	0	0	120691	61.74	1437	32.48%							inhibition of HIV-RT ([2]; Experiment 7, cell pellets): most dramatic inhibition; HIV-RT ([2]; Table 5, per well, negative values set to 0): 0 pg/well; HIV-RT (negative values set to 0) ([2]; Table 9, per well): 0 ng/well; N* ([3]; Table 8, per specimen, 90 min viral inoculation, MISID 0.685 uM): 120981 copies/mL and 121288 copies/mL and 119805 copies/mL; N* ([3]; Table 10, per specimen, 3TC 1 uM): 1203 copies/mL and 1409 copies/mL and 1700 copies/mL
CC(C)(C)NC(=O)[C@@H]1C[C@@H]2CCCC[C@@H]2CN1C[C@@H](O)[C@H](Cc1ccccc1)NC(=O)[C@H](CC(N)=O)NC(=O)c1ccc2ccccc2n1 [Saquinavir]	Great inhibition	0	12.7	0.016	12.7	0.022	124762	63.82	2438	approximately 55%	83	some inhibition	X2 = 31.10 +/− 4.67 pg/well, % CV = 15.01%	~68%	32.38	42100	inhibition of HIV-RT in comparison with the control ([2]; Experiment 5a text, combination at synergistically reduced concentrations): approximately 15%; HIV-RT [2, 6]: 0.021 ng/well and 0.023 ng/well; HIV-RT (negative values set to 0) [2, 6]: 0.021 ng/well and 0.023 ng/well; Log 10 N ([3]; listed as SAQ): 4.61 and 4.60 and 4.66; N* ([3]; Table 8, per specimen, 90 min viral inoculation, MISID 0.685 uM, listed as SAQ): 122515 copies/mL and 128455 copies/mL and 123316 copies/mL; N* ([3]; Table 10, per specimen, 3TC 1 uM, listed as SAQ): 2816 copies/mL and 2375 copies/mL and 2122 copies/mL; % OF CONTROL ([3]; Table 10 and Experiment 11, listed as SAQ): 55.08%
B1		0	46.03	0.058	67.46	0.159	143761	73.54	3233	~73%	54	some inhibition	X3 = 68.43 +/− 11.26 pg/well, % CV = 16.45%	approximately 60%	40.78	53020	inhibition of intracellular HIV-RT as compared to untreated control ([2]; Example 1, day 7 pellets, PEG-ASNase 0.4 IU/ml, Saquinavir 25 μM, combination 0.233 IU/ml + 14.5 μM): about 30%; effect in inhibiting HIV-RT ([2]; Experiment 5a, day 7): moderate effect; % cont. [2, 7]: 79.9% and 68.0% and 57.4%; HIV-RT [2, 7]: 0.330 pg/well and 0.281 pg/well and 0.237 pg/well; RANGE (HIV-RT, low or zero wells left out) ([2]; Table 5): 0.085 pg/well; HIV-RT [2, 8]: 0.201 ng/well and 0.142 ng/well and 0.133 ng/well; HIV-RT (negative values set to 0) [2, 8]: 0.201 ng/well and 0.142 ng/well and 0.133 ng/well; Log 10 N ([3]; listed as PEG): 4.71 and 4.72 and 4.73; N* ([3]; Table 8, per specimen, 90 min viral inoculation, MISID 0.685 uM, listed as PEG): 147041 copies/mL and 142575 copies/mL and 141667 copies/mL; N* ([3]; Table 10, per specimen, 3TC 1 uM, listed as PEG): 3132 copies/mL and 3048 copies/mL and 3520 copies/mL; % OF CONTROL ([3]; Table 10 and Experiment 11, listed as PEG): 73.06%
